Test results reported in CN115252762A, “一种高分子化合物的生长因子结合用途” (East China University of Science and Technology, priority 2021, dated 2022).

Columns and labels:
[1] = target: T1, bone morphogenetic protein-2 (BMP-2) [骨形态发生蛋白-2(BMP-2)] (Homo sapiens, UniProt P12643); test: Glass surface BMP-2 binding, protein immunofluorescence; details: relative to (Lys0.4Nle0.6)30 polymer; grafted on glass
T1 sequence (P12643 283-396): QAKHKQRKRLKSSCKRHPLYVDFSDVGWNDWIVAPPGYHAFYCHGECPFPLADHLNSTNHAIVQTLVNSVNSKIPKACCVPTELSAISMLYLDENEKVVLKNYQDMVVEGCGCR

[2] = target: T2, fibroblast growth factor-21 (FGF-21) [成纤维细胞生长因子-21(FGF-21)] (Homo sapiens, UniProt Q9NSA1); test: Glass surface FGF-21 binding, protein immunofluorescence; details: relative to (Lys0.4Nle0.6)30 polymer; grafted on glass
T2 sequence (Q9NSA1 29-209): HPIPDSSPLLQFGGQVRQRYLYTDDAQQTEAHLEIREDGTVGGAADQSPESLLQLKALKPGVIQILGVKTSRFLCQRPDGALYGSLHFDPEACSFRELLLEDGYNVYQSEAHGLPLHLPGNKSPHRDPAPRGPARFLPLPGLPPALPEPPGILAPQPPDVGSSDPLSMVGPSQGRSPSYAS

TGF-β = TGF-β (Homo sapiens, UniProt P01137); test: Glass surface TGF-β binding, peptide versus polymer; details: relative to (Lys0.4Nle0.6)30 polymer; grafted on glass
TGF-β, sequence (P01137 279-390 limits assumed): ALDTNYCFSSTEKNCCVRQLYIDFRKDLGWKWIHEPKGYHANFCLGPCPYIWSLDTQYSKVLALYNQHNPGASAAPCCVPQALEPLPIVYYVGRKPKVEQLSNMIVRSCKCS

[3] = target: platelet-derived factor PDGF-AA [血小板衍生因子PDGF-AA] (Homo sapiens, UniProt P04085); test: Glass surface PDGF-AA binding, peptide versus polymer; details: relative to (Lys0.4Nle0.6)30 polymer; grafted on glass
growth factors [生长因子] = test: Glass surface growth factor binding, peptide versus polymer (overall); details: peptide versus (Lys0.4Nle0.6)30 polymer; grafted on glass

(L-Lys)-(L-Nor)-(D-Lys)-(D-Nor)-(L-Nor)-(L-Lys)-(D-Nor)-(D-Lys)-(L-Nor)-(D-Nor)-(L-Lys)-(L-Nor)-(D-Lys)-(D-Nor)-(L-Nor)-(L-Lys)-(D-Nor)-(D-Lys)-(L-Nor)-(D-Nor)-(L-Lys)-(L-Nor)-(D-Lys)-(D-Nor)-(L-Nor)-(L-Lys)-(D-Nor)-(L-Nor)-(L-Cys) [Lys0.4Nle0.6多肽]
BMP-2 binding amount, multiple of peptide polymer [1]: 1.99 fold
FGF-21 binding amount, multiple of peptide polymer [2]: 2.55 fold
TGF-β binding amount, multiple of peptide polymer (TGF-β): 1.61 fold
PDGF-AA binding amount, multiple of peptide polymer [3]: 2.06 fold
growth factor binding compared with polymer (growth factors [生长因子]): 优于聚合物
